Publication PMC11341970 (RSC Advances, 2024)
Read-outs that look alike come from different tables or passages of the source.

Key:
[1] = biological target: EeAChE (Electrophorus electricus, UniProt O42275); assay: AChE inhibition assay; type: biochemical
[2] = biological target: hBACE 1 (Homo sapiens, UniProt P56817); assay: BACE 1 inhibition assay; type: biochemical
Chain of hBACE 1 (P56817 46-501): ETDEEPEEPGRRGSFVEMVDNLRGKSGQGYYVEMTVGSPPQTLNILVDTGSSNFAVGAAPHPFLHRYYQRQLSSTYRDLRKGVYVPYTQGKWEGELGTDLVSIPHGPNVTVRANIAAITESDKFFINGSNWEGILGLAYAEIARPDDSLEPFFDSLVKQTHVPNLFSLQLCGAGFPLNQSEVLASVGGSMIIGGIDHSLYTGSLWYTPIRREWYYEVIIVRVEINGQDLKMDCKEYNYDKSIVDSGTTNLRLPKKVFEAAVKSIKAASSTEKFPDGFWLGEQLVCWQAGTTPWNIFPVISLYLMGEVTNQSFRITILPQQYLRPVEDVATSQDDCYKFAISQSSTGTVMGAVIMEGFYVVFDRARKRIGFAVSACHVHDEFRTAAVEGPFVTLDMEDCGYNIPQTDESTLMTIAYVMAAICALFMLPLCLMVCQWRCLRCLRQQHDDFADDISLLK

Chain of EeAChE (O42275 24-633): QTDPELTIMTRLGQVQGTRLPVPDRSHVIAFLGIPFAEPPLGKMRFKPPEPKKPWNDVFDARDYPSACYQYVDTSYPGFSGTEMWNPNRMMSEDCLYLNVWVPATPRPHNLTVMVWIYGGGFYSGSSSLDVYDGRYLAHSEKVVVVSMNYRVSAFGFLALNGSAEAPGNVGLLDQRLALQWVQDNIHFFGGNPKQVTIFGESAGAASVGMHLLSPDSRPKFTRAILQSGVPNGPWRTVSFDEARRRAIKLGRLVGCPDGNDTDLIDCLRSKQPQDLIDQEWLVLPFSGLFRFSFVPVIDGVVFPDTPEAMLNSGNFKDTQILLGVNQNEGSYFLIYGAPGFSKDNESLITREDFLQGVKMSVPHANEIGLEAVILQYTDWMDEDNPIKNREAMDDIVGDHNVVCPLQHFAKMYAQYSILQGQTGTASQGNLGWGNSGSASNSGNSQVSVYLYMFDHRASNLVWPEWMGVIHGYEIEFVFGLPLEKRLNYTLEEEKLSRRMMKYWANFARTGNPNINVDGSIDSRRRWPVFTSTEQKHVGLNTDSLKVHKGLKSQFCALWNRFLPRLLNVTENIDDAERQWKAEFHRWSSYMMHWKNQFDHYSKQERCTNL

[H]/N=C(/N)NN=C(/C=C/c1ccccc1)c1cccn1Cc1ccc(F)cc1F [Compound 2k, (Z)-2-((E)-1-(1-(2,4-Difluorobenzyl)-1H-pyrrol-2-yl)-3-phenylallylidene)hydrazine-1-carboximidamide]
IC50 [1]: 61.1 ± 1.48 µM
IC50 [2]: 133 ± 1.84 µM

[H]/N=C(/N)NN=C(/C=C/c1ccc(C(C)(C)C)cc1)c1cccn1Cc1ccc(C(F)(F)F)cc1 [Compound 3h, (Z)-2-((E)-3-(4-(tert-Butyl)phenyl)-1-(1-(4-(trifluoromethyl)benzyl)-1H-pyrrol-2-yl)allylidene)hydrazine-1-carboximidamide]
IC50 [1]: 71.17 ± 0.49 µM
IC50 [2]: 179 ± 2.26 µM

[H]/N=C(/N)NN=C(/C=C/c1ccccc1)c1cccn1Cc1ccc([N+](=O)[O-])cc1 [Compound 2l, (Z)-2-((E)-1-(1-(4-Nitrobenzyl)-1H-pyrrol-2-yl)-3-phenylallylidene)hydrazine-1-carboximidamide]
IC50 [1]: 43.6 ± 0.66 µM
IC50 [2]: 193.35 ± 0.07 µM

[H]/N=C(/N)NN=C(/C=C/c1ccccc1)c1cccn1Cc1ccc(OC(F)(F)F)cc1 [Compound 2b, (Z)-2-((E)-3-Phenyl-1-(1-(4-(trifluoromethoxy)benzyl)-1H-pyrrol-2-yl)allylidene)hydrazine-1-carboximidamide]
IC50 ([1]; read-out: eeAChE IC50 (μM) ± SD, Ellman assay, mean ± SD of three experiments): 231.7 ± 1.27 µM
IC50 ([2]; read-out: hBACE 1 IC50 (μM) ± SD, FRET assay, mean ± SD of three experiments): 86.19 ± 0.38 µM

[H]/N=C(/N)NN=C(/C=C/c1ccccc1)c1cccn1Cc1cc(C(F)(F)F)cc(C(F)(F)F)c1 [Compound 2i, (Z)-2-((E)-1-(1-(3,5-Bis(trifluoromethyl)benzyl)-1H-pyrrol-2-yl)-3-phenylallylidene)hydrazine-1-carboximidamide]
IC50 [1]: 77.56 ± 0.66 µM
IC50 [2]: 139.1 ± 1.13 µM

[H]/N=C(/N)NN=C(/C=C/c1cccc(OC)c1)c1cccn1Cc1ccccc1 [Compound 1i, (Z)-2-((E)-1-(1-Benzyl-1H-pyrrol-2-yl)-3-(3-methoxyphenyl)allylidene)hydrazine-1-carboximidamide]
IC50 [1]: 206.6 ± 0.49 µM
IC50 [2]: 134.1 ± 0.21 µM

[H]/N=C(/N)NN=C(/C=C/c1ccccc1)c1cccn1Cc1ccccc1F [Compound 2g, (Z)-2-((E)-1-(1-(2-Fluorobenzyl)-1H-pyrrol-2-yl)-3-phenylallylidene)hydrazine-1-carboximidamide]
IC50 [1]: 163 ± 3.18 µM
IC50 [2]: 100.8 ± 0.57 µM

[H]/N=C(/N)NN=C(/C=C/c1ccc(Cl)cc1)c1cccn1Cc1ccc(Br)cc1 [Compound 3l, (Z)-2-((E)-1-(1-(4-Bromobenzyl)-1H-pyrrol-2-yl)-3-(4-chlorophenyl)allylidene)hydrazine-1-carboximidamide]
IC50 [1]: 123 ± 3.11 µM
IC50 [2]: 192.3 ± 1.77 µM

[H]/N=C(/N)NN=C(/C=C/c1cc(OC)cc(OC)c1)c1cccn1Cc1ccc(C(C)(C)C)cc1 [Compound 3j, (Z)-2-((E)-1-(1-(4-(tert-Butyl)benzyl)-1H-pyrrol-2-yl)-3-(3,5-dimethoxyphenyl)allylidene)hydrazine-1-carboximidamide]
IC50 [1]: 69.6 ± 1.51 µM
IC50 [2]: 177 ± 2.83 µM

[H]/N=C(/N)NN=C(/C=C/c1ccc(C(C)(C)C)cc1)c1cccn1Cc1ccc(C(C)(C)C)cc1 [Compound 3k, (Z)-2-((E)-1-(1-(4-(tert-Butyl)benzyl)-1H-pyrrol-2-yl)-3-(4-(tert-butyl)phenyl)allylidene)hydrazine-1-carboximidamide]
IC50 [1]: 48.1 ± 0.52 µM
IC50 [2]: 178.2 ± 0.92 µM

[H]/N=C(/N)NN=C(/C=C/c1ccc(OC)c(OC)c1)c1cccn1Cc1cc(OC)cc(OC)c1 [Compound 3e, (Z)-2-((E)-1-(1-(3,5-Dimethoxybenzyl)-1H-pyrrol-2-yl)-3-(3,4-dimethoxyphenyl)allylidene)hydrazine-1-carboximidamide]
IC50 [1]: 57.2 ± 2.47 µM
IC50 [2]: 162 ± 2.43 µM

[H]/N=C(/N)NN=C(/C=C/c1ccc(Cl)cc1Cl)c1cccn1Cc1ccccc1 [Compound 1d, (Z)-2-((E)-1-(1-Benzyl-1H-pyrrol-2-yl)-3-(2,4-dichlorophenyl)allylidene)hydrazine-1-carboximidamide]
IC50 [1]: 55.4 ± 0.91 µM
AChE inhibition (% of inhibition) ([1]; concentration not given): 26.75%
IC50 [2]: 207.9 ± 1.91 µM
